Source: patent US11524966B1 (Valo Early Discovery, Inc., priority 2017, dated 2022)

Target: T1, USP28 (His-tagged USP28-FL-mammalian) (Homo sapiens, UniProt Q96RU2)
T1 construct: Expression of USP28 (1-1077)-TEV-6*His (pTT5 vector); made in house; host or cells: Expi293f cells (pTT5 vector)
T1 sequence (Q96RU2 1-1077): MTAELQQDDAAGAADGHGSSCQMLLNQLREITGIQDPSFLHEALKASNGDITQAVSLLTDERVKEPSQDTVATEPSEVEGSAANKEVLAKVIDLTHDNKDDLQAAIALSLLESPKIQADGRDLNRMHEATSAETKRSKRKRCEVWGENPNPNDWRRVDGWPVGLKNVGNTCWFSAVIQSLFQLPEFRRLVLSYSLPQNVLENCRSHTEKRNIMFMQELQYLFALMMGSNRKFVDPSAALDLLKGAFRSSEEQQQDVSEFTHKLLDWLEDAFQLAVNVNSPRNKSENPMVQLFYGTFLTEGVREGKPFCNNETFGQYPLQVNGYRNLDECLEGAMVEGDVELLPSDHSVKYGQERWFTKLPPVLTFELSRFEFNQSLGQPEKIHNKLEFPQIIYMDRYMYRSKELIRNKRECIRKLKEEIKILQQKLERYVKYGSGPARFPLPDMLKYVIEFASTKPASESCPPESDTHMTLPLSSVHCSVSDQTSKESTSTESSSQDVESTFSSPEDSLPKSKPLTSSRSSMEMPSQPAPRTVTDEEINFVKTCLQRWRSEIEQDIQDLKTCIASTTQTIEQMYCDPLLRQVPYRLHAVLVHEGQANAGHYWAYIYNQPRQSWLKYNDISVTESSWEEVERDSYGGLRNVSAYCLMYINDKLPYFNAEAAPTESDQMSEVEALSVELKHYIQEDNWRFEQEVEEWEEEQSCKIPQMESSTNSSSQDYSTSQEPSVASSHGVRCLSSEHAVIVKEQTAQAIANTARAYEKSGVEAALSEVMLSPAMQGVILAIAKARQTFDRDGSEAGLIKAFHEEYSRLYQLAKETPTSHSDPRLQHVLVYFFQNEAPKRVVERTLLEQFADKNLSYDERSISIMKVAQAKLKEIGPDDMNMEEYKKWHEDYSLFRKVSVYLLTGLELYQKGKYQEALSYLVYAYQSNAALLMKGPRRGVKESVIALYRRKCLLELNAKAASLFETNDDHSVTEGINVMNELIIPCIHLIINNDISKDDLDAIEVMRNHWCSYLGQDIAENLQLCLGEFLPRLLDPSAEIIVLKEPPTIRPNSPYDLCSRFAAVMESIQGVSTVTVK
Assay: Ubiquitin-Rhodamine 110 Assay for USP28 Activity, Example A-1(a)
Type: biochemical
Details: Ubiquitin-Rhodamine 110 assay, Example A-1(a); read-out: USP28 A-1(a) IC50 range
Outline: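 Full-length His-tagged human USP28 (1-1077, Expi293f-expressed), […], with 25 nM Ub-Rh110 (<<Km) in pH 8.0 Tris buffer with BME, BGG, Triton X-100. 10-point dilutions (25 μM-1.3 nM), 45 min at room temperature, citric acid stop, fluorescence 485/535 nm; IC50 by 4-parameter fit.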

Compound | IC50 [nM]
CCn1ccc2cc(C(=O)N[C@@H]3CCc4cc(N5C[C@H](OC)[C@@H](N)C5)cc(F)c4C3)nnc21 [Example 139, N-[(2R)-6-[(3S,4S)-3-amino-4-methoxypyrrolidin-1-yl]-8-fluoro-1,2,3,4-tetrahydronaphthalen-2-yl]-7-ethyl-7H-pyrrolo[2,3-c]pyridazine-3-carboxamide] | > 2000
Cc1ccc2c(N)c(C(=O)N[C@H]3COc4cc(N5C[C@H](OC6CC6)[C@@H](N)C5)ccc4C3)sc2n1 [Example 140, 3-amino-N-[(3R)-7-[(3S,4S)-3-amino-4-cyclopropoxypyrrolidin-1-yl]-3,4-dihydro-2H-1-benzopyran-3-yl]-6-methylthieno[2,3-b]pyridine-2-carboxamide] | 1 to 50
Cc1ccc2c(N)c(C(=O)N[C@H]3COc4cc(N5C[C@H](OC6CCC6)[C@@H](N)C5)ccc4C3)sc2n1 [Example 141, 3-amino-N-[(3R)-7-[(3S,4S)-3-amino-4-cyclobutoxypyrrolidin-1-yl]-3,4-dihydro-2H-1-benzopyran-3-yl]-6-methylthieno[2,3-b]pyridine-2-carboxamide] | 1 to 50
CCO[C@H]1CN(c2ccc3c(n2)CC[C@H](NC(=O)c2sc4nc(C)ccc4c2N)C3)C[C@@H]1N [Example 142, 3-amino-N-[(6S)-2-[(3S,4S)-3-amino-4-ethoxypyrrolidin-1-yl]-5,6,7,8-tetrahydroquinolin-6-yl]-6-methylthieno[2,3-b]pyridine-2-carboxamide] | 200 to 2000
CO[C@@H]1CN(c2ccc3c(c2)CC[C@H](NC(=O)c2sc4nc(C)ccc4c2N)C3)C[C@@H]1N [Example 143, 3-amino-N-[(2S)-6-[(3S,4R)-3-amino-4-methoxypyrrolidin-1-yl]-1,2,3,4-tetrahydronaphthalen-2-yl]-6-methylthieno[2,3-b]pyridine-2-carboxamide] | 1 to 50
CO[C@@H]1CN(c2cc(F)c3c(c2)OC[C@H](NC(=O)c2sc4nc(C)ccc4c2N)C3)C[C@@H]1N [Example 145, 3-amino-N-[(3R)-7-[(3S,4R)-3-amino-4-methoxypyrrolidin-1-yl]-5-fluoro-3,4-dihydro-2H-1-benzopyran-3-yl]-6-methylthieno[2,3-b]pyridine-2-carboxamide] | 1 to 50
CO[C@H]1CN(c2cc(F)c3c(c2)OC[C@H](NC(=O)c2sc4nc(C)ccc4c2N)C3)C[C@H]1N [Example 146] | 1 to 50
CO[C@H]1CN(c2ccc3c(c2)OC[C@H](NC(=O)c2sc4nc(C)cnc4c2N)C3)C[C@H]1N [Example 148, 7-amino-N-[(3R)-7-[(3R,4S)-3-amino-4-methoxypyrrolidin-1-yl]-3,4-dihydro-2H-1-benzopyran-3-yl]-3-methylthieno[2,3-b]pyrazine-6-carboxamide] | 1 to 50
CO[C@@H]1CN(c2ccc3c(c2)OC[C@H](NC(=O)c2sc4nc(C)sc4c2N)C3)C[C@@H]1N [Example 149, 6-amino-N-[(3R)-7-[(3S,4R)-3-amino-4-methoxypyrrolidin-1-yl]-3,4-dihydro-2H-1-benzopyran-3-yl]-2-methylthieno[2,3-d][1,3]thiazole-5-carboxamide] | 1 to 50
CO[C@H]1CN(c2ccc3c(c2)OC[C@H](NC(=O)c2sc4nc(C)sc4c2N)C3)C[C@H]1N [Example 150] | 50 to 200
CCO[C@@H]1CN(c2ccc3c(c2)OC[C@H](NC(=O)c2sc4nc(C)ccc4c2N)C3)C[C@@H]1N [Example 151, 3-amino-N-[(3R)-7-[(3S,4R)-3-amino-4-ethoxypyrrolidin-1-yl]-3,4-dihydro-2H-1-benzopyran-3-yl]-6-methylthieno[2,3-b]pyridine-2-carboxamide] | 1 to 50
CCO[C@H]1CN(c2ccc3c(c2)OC[C@H](NC(=O)c2sc4nc(C)ccc4c2N)C3)C[C@H]1N [Example 152] | 1 to 50
Cc1ccc2c(N)c(C(=O)N[C@H]3COc4cc(N5C[C@@H]6NCCO[C@@H]6C5)ccc4C3)sc2n1 [Example 153, N-[(3R)-7-[(4aS,7aR)-octahydropyrrolo[3,4-b]morpholin-6-yl]-3,4-dihydro-2H-1-benzopyran-3-yl]-3-amino-6-methylthieno[2,3-b]pyridine-2-carboxamide] | 50 to 200
Cc1ccc2c(N)c(C(=O)N[C@H]3COc4cc(N5C[C@@H]6OCCN[C@@H]6C5)ccc4C3)sc2n1 [Example 154, N-[(3R)-7-[(4aR,7aS)-octahydropyrrolo[3,4-b]morpholin-6-yl]-3,4-dihydro-2H-1-benzopyran-3-yl]-3-amino-6-methylthieno[2,3-b]pyridine-2-carboxamide] | 50 to 200
COC[C@@H]1CNCCN1c1ccc2c(c1)OC[C@H](NC(=O)c1sc3nc(C)ccc3c1N)C2 [Example 155, 3-amino-N-[(3R)-7-[(2S)-2-(methoxymethyl)piperazin-1-yl]-3,4-dihydro-2H-1-benzopyran-3-yl]-6-methylthieno[2,3-b]pyridine-2-carboxamide] | 1 to 50
COC[C@H]1CNCCN1c1ccc2c(c1)OC[C@H](NC(=O)c1sc3nc(C)ccc3c1N)C2 [Example 156, 3-amino-N-[(3R)-7-[(21)-2-(methoxymethyl)piperazin-1-yl]-3,4-dihydro-2H-1-benzopyran-3-yl]-6-methylthieno[2,3-b]pyridine-2-carboxamide] | 50 to 200
COC[C@H]1CN(c2ccc3c(c2)OC[C@H](NC(=O)c2sc4nc(C)ccc4c2N)C3)CCN1 [Example 157, 3-amino-N-[(3R)-7-[(3R)-3-(methoxymethyl)piperazin-1-yl]-3,4-dihydro-2H-1-benzopyran-3-yl]-6-methylthieno[2,3-b]pyridine-2-carboxamide] | 1 to 50
COC[C@@H]1CN(c2ccc3c(c2)OC[C@H](NC(=O)c2sc4nc(C)ccc4c2N)C3)CCN1 [Example 158, 3-amino-N-[(3R)-7-[(3S)-3-(methoxymethyl)piperazin-1-yl]-3,4-dihydro-2H-1-benzopyran-3-yl]-6-methylthieno[2,3-b]pyridine-2-carboxamide] | 50 to 200
Cc1cc(C)c2c(N)c(C(=O)N[C@H]3COc4cc(N5CCNCC5)c(F)c(F)c4C3)sc2n1 [Example 159, 3-amino-N-[(3R)-5,6-difluoro-7-(piperazin-1-yl)-3,4-dihydro-2H-1-benzopyran-3-yl]-4,6-dimethylthieno[2,3-b]pyridine-2-carboxamide] | > 2000
Cc1cc(C)c2c(N)c(C(=O)N[C@@H]3COc4cc(N5CCNCC5)c(F)c(F)c4C3)sc2n1 [Example 160, 3-amino-N-[(3S)-5,6-difluoro-7-(piperazin-1-yl)-3,4-dihydro-2H-1-benzopyran-3-yl]-4,6-dimethylthieno[2,3-b]pyridine-2-carboxamide] | 1 to 50
COC[C@@H]1CN(c2ccc3c(c2)OC[C@H](NC(=O)c2sc4nc(C)ccc4c2N)C3)C[C@@H]1N [Example 161, 3-amino-N-[(3R)-7-[(3R,4R)-3-amino-4(methoxymethyl)pyrrolidin-1-yl]-3,4-dihydro-2H-1-benzopyran-3-yl]-6-methylthieno[2,3-b]pyridine-2-carboxamide] | 1 to 50
COC[C@H]1CN(c2ccc3c(c2)OC[C@H](NC(=O)c2sc4nc(C)ccc4c2N)C3)C[C@H]1N [Example 162, 3-amino-N-[(3R)-7-[(3S,4S)-3-amino-4-(methoxymethyl)pyrrolidin-1-yl]-3,4-dihydro-2H-1-benzopyran-3-yl]-6-methylthieno[2,3-b]pyridine-2-carboxamide] | 1 to 50
COC[C@@H]1CN(c2ccc3c(c2)OC[C@H](NC(=O)c2sc4nc(C)ccc4c2N)C3)C[C@H]1N [Example 163, 3-amino-N-[(3R)-7-[(3S,4R)-3-amino-4-(methoxymethyl)pyrrolidin-1-yl]-3,4-dihydro-2H-1-benzopyran-3-yl]-6-methylthieno[2,3-b]pyridine-2-carboxamide] | 1 to 50
COC[C@H]1CN(c2ccc3c(c2)OC[C@H](NC(=O)c2sc4nc(C)ccc4c2N)C3)C[C@@H]1N [Example 164, 3-amino-N-[(3R)-7-[(3R,4S)-3-amino-4-(methoxymethyl)pyrrolidin-1-yl]-3,4-dihydro-2H-1-benzopyran-3-yl]-6-methylthieno[2,3-b]pyridine-2-carboxamide] | 1 to 50
